In the NIST ThermoML archive (doi:10.1016/j.jct.2016.05.021):
± gives the expanded uncertainty stated by the source.

Columns and labels:
[1] = xn = mol fraction of the nth substance listed; conditions: 100 kPa, Liquid; for mass density: Vibrating tube method; for speed of sound: Frequency=3 MHz, Sing-around technique in a fixed-path interferometer
[2] = refractive index (Na D-line) (dimensionless); xn = mol fraction of the nth substance listed; conditions: 100 kPa, Liquid, Standard Abbe refractometry

O=C1CCCN1 [2-pyrrolidinone] + CCCC[n+]1ccn(C)c1.O=S(=O)([N-]S(=O)(=O)C(F)(F)F)C(F)(F)F
Conditions | mass density, 318.15 K [kg/m3] | mass density, 323.15 K [kg/m3] | refractive index, 298.15 K | refractive index, 303.15 K | refractive index, 308.15 K | refractive index, 313.15 K | refractive index, 318.15 K | refractive index, 323.15 K | speed of sound, 323.15 K [m/s]
[1], x2 = 0 | 1090.82 ± 1 | 1086.75 ± 1 | – | – | – | – | – | – | 1553.5 ± 1.4
[1], x2 = 0.1242 | 1182.35 ± 1 | 1176.91 ± 1 | – | – | – | – | – | – | 1420.2 ± 1.3
[1], x2 = 0.22 | 1231.34 ± 1 | 1225.78 ± 1 | – | – | – | – | – | – | 1362.6 ± 1.3
[1], x2 = 0.3191 | 1270.47 ± 1 | 1264.95 ± 1 | – | – | – | – | – | – | 1320.9 ± 1.3
[1], x2 = 0.4048 | 1298.28 ± 1 | 1292.83 ± 1 | – | – | – | – | – | – | 1292.9 ± 1.3
[1], x2 = 0.51 | 1326.8 ± 1 | 1321.44 ± 1 | – | – | – | – | – | – | 1264.6 ± 1.3
[1], x2 = 0.5945 | 1346.22 ± 1 | 1340.9 ± 1 | – | – | – | – | – | – | 1245.2 ± 1.3
[1], x2 = 0.7171 | 1370.46 ± 1 | 1365.25 ± 1 | – | – | – | – | – | – | 1220.5 ± 1.3
[1], x2 = 0.8383 | 1391.04 ± 1 | 1385.92 ± 1 | – | – | – | – | – | – | 1199.1 ± 1.3
[1], x2 = 0.9084 | 1401.82 ± 1 | 1396.86 ± 1 | – | – | – | – | – | – | 1187.6 ± 1.3
[2], x2 = 0 | – | – | 1.48591 ± 0.00033 | 1.48403 ± 0.00033 | 1.48218 ± 0.00033 | 1.48033 ± 0.00033 | 1.47841 ± 0.00033 | 1.47649 ± 0.00033 | –
[2], x2 = 0.1242 | – | – | 1.46742 ± 0.00033 | 1.46576 ± 0.00033 | 1.46414 ± 0.00033 | 1.46253 ± 0.00033 | 1.46087 ± 0.00033 | 1.4592 ± 0.00033 | –
[2], x2 = 0.22 | – | – | 1.45836 ± 0.00033 | 1.45679 ± 0.00033 | 1.45525 ± 0.00033 | 1.4537 ± 0.00033 | 1.45212 ± 0.00033 | 1.45051 ± 0.00033 | –
[2], x2 = 0.3191 | – | – | 1.45142 ± 0.00033 | 1.44988 ± 0.00033 | 1.44835 ± 0.00033 | 1.44683 ± 0.00033 | 1.44527 ± 0.00033 | 1.44369 ± 0.00033 | –
[2], x2 = 0.4048 | – | – | 1.44661 ± 0.00033 | 1.4451 ± 0.00033 | 1.44359 ± 0.00033 | 1.44209 ± 0.00033 | 1.44057 ± 0.00033 | 1.43902 ± 0.00033 | –
[2], x2 = 0.51 | – | – | 1.44176 ± 0.00033 | 1.44028 ± 0.00033 | 1.43881 ± 0.00033 | 1.43733 ± 0.00033 | 1.43584 ± 0.00033 | 1.43432 ± 0.00033 | –
[2], x2 = 0.5945 | – | – | 1.43844 ± 0.00033 | 1.43699 ± 0.00033 | 1.43554 ± 0.00033 | 1.43407 ± 0.00033 | 1.43261 ± 0.00033 | 1.4311 ± 0.00033 | –
[2], x2 = 0.7171 | – | – | 1.4343 ± 0.00033 | 1.43286 ± 0.00033 | 1.43142 ± 0.00033 | 1.42997 ± 0.00033 | 1.42853 ± 0.00033 | 1.42704 ± 0.00033 | –
[2], x2 = 0.8383 | – | – | 1.43075 ± 0.00033 | 1.42932 ± 0.00033 | 1.42789 ± 0.00033 | 1.42645 ± 0.00033 | 1.42499 ± 0.00033 | 1.42352 ± 0.00033 | –
[2], x2 = 0.9084 | – | – | 1.42892 ± 0.00033 | 1.42747 ± 0.00033 | 1.426 ± 0.00033 | 1.42456 ± 0.00033 | 1.42312 ± 0.00033 | 1.42164 ± 0.00033 | –
